Test system: miR-34b, miR-132, miR-137, miR-193a, and miR-203 genes in oral squamous-cell carcinoma cell lines
Test: Real-time RT-PCR of candidate miRNA gene expression after treatment with demethylating reagent
Format: cell-based
Text: The miRNA expression levels were compared in terms of relative value based on the RNU6B expression level as an internal control. Stars represent 21 types of miRNA genes located on or around the CpG islands. […] A bar graph representing each cell line represents a comparison of expression levels in the RT7 cells and in each cell line. […] A bar graph representing each cell line indicates a comparison of expression levels in untreated cells and in treated cells. […] Asterisks (*) represent a frequency of oral squamous-cell carcinoma cell lines in which recovery of candidate miRNA expression (expression levels of more than 1.5-fold) was observed by comparing untreated cells with cells that have been treated with 10 μM 5-aza-dCyd.
In order to inspect whether or not expression of these 5 types of miRNA genes was suppressed by DNA methylation, oral squamous-cell carcinoma cell lines in which these 5 types of miRNA genes had not been expressed were treated with 1 μM and 10 μM demethylating reagents (5-aza-dCyd) for 5 days. RNA was extracted from these cell lines and expression of candidate miRNA genes was inspected via real-time RT-PCR (FIG. 1D).

Nc1ncn([C@H]2C[C@H](O)[C@@H](CO)O2)c(=O)n1 [5-aza-dCyd, 5-aza-2′-deoxycytidine]
recovery of candidate miRNA gene expression (1 μM and 10 μM for 5 days, OSCC cell lines in which the 5 miRNA genes had not been expressed): expression of these genes was found to be recovered | demethylation of CpG islands near the miRNA genes (oral squamous-cell carcinoma cells cultured in the presence of the demethylating reagent): possible to demethylate such CpG islands
